The results in this text go back to patent US9682963B2, “Pyridine derivatives as soft rock inhibitors” (Amakem NV, priority 2013, dated 2017).

As usually defined, the EC50 is the concentration giving half of the maximal effect.

Data set [1] concerns MLC-T18/S19 phosphorylation in A7r5 cells (endogenous ROCK). The data set can be described thus: MLC phosphorylation assay (ELISA) in A7r5 cells. Format: cell-based. To be noted: Rattus norvegicus, serum-free medium, phospho-MLC-T18/S19 ELISA, read-out: EC50 MLC-PP. The procedure:
Rat smooth muscle cell line A7r5 is used. The endogenous expression of ROCK results in a constitutive phosphorylation of the regulatory myosin light chain at T18/S19. A7r5 cells were plated in DMEM supplemented with 10% FCS in multiwall cell culture plates. After serum starvation overnight, cells were incubated with compounds in serum-free medium.
Quantification of MLC-T18/S19 phosphorylation is assessed in 96 well-plates via ELISA using a phospho-MLC-T18/S19 specific antibody and a secondary detection antibody. Raw data were converted into percent substrate phosphorylation relative to high controls, which were set to 100%. EC50 values were determined using GraphPad Prism 5.01 software using a nonlinear regression curve fit with variable hill slope.

The nature of data set [2]: Stability assay in human plasma. To be noted: 1 μM in human plasma, LC-MS/MS; read-out: t½ human plasma. Format: in vitro ADME. The procedure: Compounds are incubated at a concentration of 1 μM in human (or animal) plasma. Samples are taken at fixed time points and the remnant of compound is determined by LC-MS/MS after protein precipitation. Half life in table C.2.1 is expressed in minutes.

Data set [3] is described as follows: Stability towards drug metabolizing enzymes in lung S9. Format: in vitro ADME. To be noted: human, lung S9 fraction, lung S9 with NADPH, UDPGA, PAPS and GSH, read-out: t½ human lung S9. The procedure:
A 1 μM solution of the ROCK inhibitors is incubated with a reaction mixture containing lung S9 (EDTA-free) as well as the cofactors NADPH, UDPGA, PAPS and GSH. Samples are collected at 0, 15, 30 and 60 minutes post incubation. Negative control samples incubated with ROCK inhibitors and S9 fraction in the absence of cofactors are run in parallel. By using LC-MS/MS analysis, the percent of ROCK compounds remaining at each time point, the metabolic half-life of the ROCK compounds (expressed in minutes in table C.2.2) and the metabolic half-life of the control compounds are determined.

Data set [4] is described as follows: Stability in human intestinal tissue homogenate. Format: in vitro ADME. The note with it: 40 mg/ml human intestinal homogenate, read-out: t½ (min) human. As to the method:
A 1 μM solution of the ROCK inhibitors is incubated with human intestinal tissue homogenate (final concentration: 40 mg/ml) Samples are collected at 0, 20 and 60 minutes post incubation. By using LC-MS/MS analysis, the percent of ROCK compounds remaining at each time point, the metabolic half-life of the ROCK compounds (expressed in minutes in table C.2.3) and the metabolic half-life of control compounds are determined.

Data set [5] in a line: Stability in mouse intestinal homogenate. It is filed as in vitro ADME. To be noted: 40 mg/ml mouse intestinal homogenate, read-out: t½ (min) mouse.
Data set [6] concerns male BALB/c mice. The data set can be described thus: Acute LPS lung challenge model, BALF cell counts. It is filed as in vivo, mouse. The note with it: 0.1 and 0.01 mg/kg intratracheally 0.5 hr before LPS; BALF at 24 hrs; versus dexamethasone 1 mg/kg oral. As to the method:
FIG. 1: Anti-inflammatory activity of Cpd4 in an acute LPS lung challenge model (mouse). Data is provided as bronchoalveolar lavage fluid (BALF) cell count (10^3/μl)±SEM. WBC: White Blood Cell. NEUT: Neutrophil. Dex: Dexamethasone control.
Selected compounds of the invention were evaluated in vivo in an acute LPS lung challenge model. Groups of 6 male BALB/c mice were used for each tested dose and for positive and negative controls. Under anesthesia with gas anesthetics (isoflurane), test substances and vehicle (0.9% NaCl, 1 mL/kg) were administered intratracheally (IT) to test animals 0.5 hr prior to challenge with ˜80 μg/kg of E. coli lipopolysaccharide (LPS, Sigma, serotype 055:B5, in sterile saline, 2 μg in 20 μL per mouse intratracheally). Dexamethasone, the positive control, at 1 mg/kg in 2% Tween 80 was given orally to test animals one hour before LPS challenge. Mice were anaesthetized with isoflurane at 24 hrs after LPS challenge, 0.5 mL of phosphate buffered saline (PBS, pH 7.4) was instilled into the lung twice through a tracheal cannula, after which about a total of 0.6˜0.8 mL of bronchoalveolar lavage fluid (BALF) was obtained. Total cell and neutrophils counts in BALF were then determined and one-way ANOVA followed by Dunnett's test was used to analyze difference between the vehicle control and treated groups. Significant difference is considered at P<0.05.

On to `NCc1ccc(C(=O)Nc2ccncc2F)cc1-c1cccc(C(=O)Nc2ccc(CNC3CCOC3=O)cc2)c1` (stereo not shown) [Cpd 1, 6-(aminomethyl)-N^3-(3-fluoropyridin-4-yl)-N^3′-(4-(((2-oxotetrahydrofuran-3-yl)amino)methyl)phenyl)-[1,1′-biphenyl]-3,3′-dicarboxamide], for which, in data set [1], the EC50 fell in the range of 100 to 1000 nM. In addition, the half-life at 1 μM is less than 20 min in data set [2] and more than 60 min in data set [3].
As to `NCc1ccc(C(=O)Nc2ccncc2F)cc1-c1cccc(C(=O)Nc2ccc(SCC3CCOC3=O)cc2)c1` (stereo not shown) [Cpd 2, 6-(aminomethyl)-N^3-(3-fluoropyridin-4-yl)-N^3′-(4-(((2-oxotetrahydrofuran-3-yl)methyl)thio)phenyl)-[1,1′-biphenyl]-3,3′-dicarboxamide], in data set [1], the half-maximal effective concentration (EC50) was less than 100 nM. Also, the half-life at 1 μM was more than 120 min in data set [4], more than 120 min in data set [5], less than 20 min in data set [2] and more than 60 min in data set [3].
Consider `NCc1ccc(C(=O)Nc2ccncc2F)cc1-c1cccc(C(=O)Nc2ccc(OC3CCOC3=O)cc2)c1` (stereo not shown) [Cpd 3, 6-(aminomethyl)-N^3-(3-fluoropyridin-4-yl)-N^3′-(4-((2-oxotetrahydrofuran-3-yl)oxy)phenyl)-[1,1′-biphenyl]-3,3′-dicarboxamide], for which, in data set [1], the EC50 lay in the range of 100 to 1000 nM. In data set [2], the half-life at 1 μM is less than 20 min.
Turning to `NCc1ccc(C(=O)Nc2ccncc2F)cc1-c1cccc(NC(=O)c2ccc(SC3CCOC3=O)cc2)c1` (stereo not shown) [Cpd 4, 6-(aminomethyl)-N-(3-fluoropyridin-4-yl)-3′-(4-((2-oxotetrahydrofuran-3-yl)thio)benzamido)-[1,1′-biphenyl]-3-carboxamide], the EC50 in data set [1] was less than 100 nM. Further, the “anti-inflammatory activity (BALF WBC and neutrophil count)” value in data set [6] is on record as “equivalent to the dexamethasone control”. The half-life at 1 μM in data set [2] was less than 20 min; in data set [3], more than 60 min.
Take `NCc1ccc(C(=O)Nc2ccncc2F)cc1-c1cccc(C(=O)Nc2ccc(NC3CCOC3=O)cc2)c1` (stereo not shown) [Cpd 5, 6-(aminomethyl)-N^3-(3-fluoropyridin-4-yl)-N^3′-(4-((2-oxotetrahydrofuran-3-yl)amino)phenyl)-[1,1′-biphenyl]-3,3′-dicarboxamide]: the concentration giving a half-maximal response (EC50) in data set [1] is less than 100 nM. Also, the half-life at 1 μM is more than 120 min in data set [5], less than 20 min in data set [2] and more than 60 min in data set [3].
Regarding `NCc1ccc(C(=O)Nc2ccncc2F)cc1-c1cccc(C(=O)Nc2ccc(SC3CCOC3=O)cc2)c1` (stereo not shown) [Cpd 6, 6-(aminomethyl)-N^3-(3-fluoropyridin-4-yl)-N^3′-(4-((2-oxotetrahydrofuran-3-yl)thio)phenyl)-[1,1′-biphenyl]-3,3′-dicarboxamide], the EC50 in data set [1] was less than 100 nM. The results for the half-life at 1 μM in data set [2] and in data set [3] were less than 20 min and more than 60 min, respectively.
`CN(c1ccc(NC(=O)c2cccc(-c3cc(C(=O)Nc4ccncc4F)ccc3CN)c2)cc1)C1CCOC1=O` (stereo not shown) [Cpd 7, 6-(aminomethyl)-N^3-(3-fluoropyridin-4-yl)-N^3′-(4-(methyl(2-oxotetrahydrofuran-3-yl)amino)phenyl)-[1,1′-biphenyl]-3,3′-dicarboxamide]: the EC50 in data set [1] was less than 100 nM. Further, the half-life at 1 μM was more than 120 min in data set [4], more than 120 min in data set [5], less than 20 min in data set [2] and more than 60 min in data set [3].
Turning to `NCc1ccc(C(=O)Nc2ccncc2F)cc1-c1cccc(C(=O)Nc2cccc(SC3CCOC3=O)c2)c1` (stereo not shown) [Cpd 8, 6-(aminomethyl)-N^3-(3-fluoropyridin-4-yl)-N^3′-(3-((2-oxotetrahydrofuran-3-yl)thio)phenyl)-[1,1′-biphenyl]-3,3′-dicarboxamide], the EC50 in data set [1] lay in the range of 100 to 1000 nM. Besides, the half-life at 1 μM in data set [2] was less than 20 min.
As to `CC1CC(Sc2ccc(NC(=O)c3cccc(-c4cc(C(=O)Nc5ccncc5F)ccc4CN)c3)cc2)C(=O)O1` (stereo not shown) [Cpd 9, 6-(aminomethyl)-N^3-(3-fluoropyridin-4-yl)-N^3′-(4-((5-methyl-2-oxotetrahydrofuran-3-yl)thio)phenyl)-[1,1′-biphenyl]-3,3′-dicarboxamide], the EC50 in data set [1] is less than 100 nM. Besides, the half-life at 1 μM in data set [2] is less than 20 min.
`NCc1ccc(C(=O)Nc2ccncc2F)cc1-c1cccc(C(=O)Nc2ccc(SC3COC(=O)C3)cc2)c1` (stereo not shown) [Cpd 11, 6-(aminomethyl)-N^3-(3-fluoropyridin-4-yl)-N^3′-(4-((2-oxotetrahydrofuran-4-yl)thio)phenyl)-[1,1′-biphenyl]-3,3′-dicarboxamide]: the concentration giving a half-maximal response (EC50) in data set [1] was less than 100 nM. Moreover, in data set [2], the half-life at 1 μM is less than 20 min.
As to `NCc1ccc(C(=O)Nc2ccncc2F)cc1-c1cccc(C(=O)Nc2ccc(SC3CCOC3=O)cc2F)c1` (stereo not shown) [Cpd 12, 6-(aminomethyl)-N^3-(3-fluoropyridin-4-yl)-N^3′-(2-fluoro-4-((2-oxotetrahydrofuran-3-yl)thio)phenyl)-[1,1'-biphenyl]-3,3′-dicarboxamide], the half-maximal effective concentration (EC50) in data set [1] was less than 100 nM. Also, the half-life at 1 μM in data set [2] is less than 20 min.
Take `NCc1ccc(C(=O)Nc2ccncc2F)cc1-c1cccc(NC(=O)c2ccc(NC3CCOC3=O)cc2)c1` (stereo not shown) [Cpd 13, 6-(aminomethyl)-N-(3-fluoropyridin-4-yl)-3′-(4-((2-oxotetrahydrofuran-3-yl)amino)benzamido)-[1,1′-biphenyl]-3-carboxamide]: in data set [1], the EC50 is less than 100 nM. Further, the half-life at 1 μM in data set [2] is less than 20 min; in data set [3], more than 60 min.
